Literature values in patent US20240408079A1, “COMPOSITIONS AND METHODS FOR THE TREATMENT OF CANCER” (THE TRANSLATIONAL GENOMICS RESEARCH INSTITUTE, priority 2021, published 2024).

How the values were obtained:
EWS-FLI = details: preclinical studies
[1] = preclinical studies, in vivo
ES cell lines = details: multiple ES cell lines

Compound	transcriptional profiles driven by EWS-FLI (EWS-FLI)	tumorigenesis in vitro (EWS-FLI)	antitumoral activity [1]	tissue culture cell viability (ES cell lines)
Seclidemstat [SP-2577]	reverse the transcriptional profiles	significantly delay tumorigenesis	little antitumoral activity in vivo	ability to impair tissue culture cell viability
C/C(=N\NC(=O)c1cccc(S(=O)(=O)N2CCOCC2)c1)c1cc(Cl)ccc1O [SP-2509]	reverse the transcriptional profiles	significantly delay tumorigenesis		
